Read-outs that look alike come from different tables or passages of the source.
Columns and labels:
Assay type in all cases: cell-based
BT-20 (TNBC cell line) = assay: MTT cell viability assay, BT-20
Procedure: (§1) The following cancer and non-cancer cell lines were used in the initial cytotoxicity screening of the TPH104 compounds: triple negative breast cancer (TNBC): MDA-MB468, MDA-MB 231, and BT-20; non-TNBC: MCF-7 and ZR-75-1; ovarian: Ov2008; prostate: DU145; colon: HCT-116, S1, and LOVO; lung: H460; normal kidney: HEK-293; normal breast: HMEC; and normal colon: CRL-1459. All cells were cultured in Dulbecco's modified Eagle medium (DMEM), supplemented with 10% fetal bovine serum (FBS), and 1% penicillin/streptomycin (P/S). Cells were allowed to grow as adherent monolayers in T25 flasks in a humidified incubator with 5% CO2 at 37° C. for a period of 24 h, unless otherwise specified for certain experiments.
(§2) The MTT assay was used to determine the cytotoxicity of all of the compounds. Briefly, in a 96-well flat-bottom cell culture plate, the cells were seeded at a density between 3-5×10^3 cells/well (180 μl in each well) and incubated for 24 h (a hemocytometer was used for cell counting). The next day, the cells were incubated with different concentrations of the nine compounds (0, 0.1, 0.3, 1, 3, 10, 30, and 100 μM) for 72 h. After 72 h, 20 μl of 5 mg/ml of 3-(4,5-dimethylthiazol-2-yl)-2,5-diphenyltetrazolium bromide (MTT) was added to the plate and incubated with the cells for 3 h at 37° C. In this experiment, the living cells will reduce the soluble MTT dye to non-soluble purple formazan crystals. Following incubation, the media containing MTT removed via suction and 100 μL of 100% dimethyl sulfoxide (DMSO) was added to dissolve the formazan crystals. Subsequently, the plate was shaken for 2 minutes and the absorbance was measured at a wavelength of 570 nm using a SpectraMax iD3 Multi-Mode Microplate Reader (Molecular Devices, Sunnyvale, CA). The IC50 values of each compound were calculated and used to determine the selectivity ratio (IC50 in normal cells/IC50 in cancer cells) of each compound as previously described. Based on the results obtained from these experiments, the compound TPH104, which had the lowest IC50 value, was selected for further experiments.

[1] = system: ZR-75-1 (non-TNBC cell line); assay: MTT cell viability assay, ZR-75-1; conditions: read-out: IC50 ± SD, ZR-75-1
Procedure: as §1, §2

MDA-MB231 cells = assay: Scratch/wound healing assay
Procedure: MDA-MB231 cells were seeded in a 6 well-plate (10-20,000 cells/well) and incubated at 37° C. until they reached 60-80% confluence and formed a complete monolayer, as previously reported. Subsequently, a wound was created by scratching the monolayer with a 10 μl sterile pipette tip. The floating cells were washed away with sterile PBS, making the wound area clear and completely empty. Immediately following monolayer scratching, TPH104 (0.5, 1, 2, 5 or 10 μM) or vehicle were added to the cell culture media (2 ml total in each well) and incubated at 37° C. for 36 h. The wound closure was monitored over time by taking pictures after 0 h, 12 h, 24 h, and 36 h of incubation using an EVOS-FLC microscope. Image J software NIH, Bethesda, MD, USA) was used to determine the areas of the wound at different time points as previously reported.

[2] = system: TRAIL, DR5, TRADD, RIP3, TNF-α, TNFR1, FADD, Fas in BT-20 TNBC cells; assay: Western blot, TRAIL and TNF pathway proteins
Procedure: The TNBC cells were seeded in a culture flask and incubated for 24 h. The cells were then incubated with different concentrations of the lead compounds and re-incubated for an additional 12 or 24 h. […] The bicinchoninic acid (BCA) was used to determine protein concentration in the cell extracts (G-BIOSCIENCES, St. Louis, MO, USA). […] The membrane was blocked using 5% milk in Tris-buffered Tween 20 saline for 30 minutes. The membrane was then incubated overnight with primary antibodies against Bak, Bax, Bcl-2, caspase9, caspase 3, caspase 7, PARP, cytochrome c, N-cadherin, E-cadherin, c-Myc, dishevelled segment polarity protein 3 (DVL3), dishevelled segment polarity protein 2 (DVL2), Vimentin, mitogen-activated protein kinase kinase (MAPKK also known as MEK1/2), β-catenin, low-density lipoprotein receptor-related protein 6 (LRP6), receptor-interacting protein kinase (RIP), phosphorylated RIP (p-RIP), mixed lineage kinase domain like pseudokinase(MLKL), Caspase 8, light chain 3 (LC3), lysosomal-associated membrane protein 1 (LAMP1), unc-51 like autophagy activating kinase 1 (ULK1), ras associated protein 7 (Rab7), ras associated protein 5 (Rab5), Beclin 1, mechanistic target of rapamycin (mTOR), tumor necrosis factor alpha (TNF-α), tumor necrosis factor receptor 1 (TNFR1), tumor necrosis factor receptor 2 (TNFR2), Fas-associated protein with death domain (FADD), Fas ligand (Fas), TNF-related apoptosis-inducing ligand (TRAIL), death receptor 5 (DR5), Tumor necrosis factor receptor type 1-associated DEATH domain (TRADD), receptor-interacting protein kinase 3 (RIP3), β-actin or GAPDH in 1:1000 dilution in 5% milk or 5% BSA at 4° C. […] A ChemiDoc™ MP System imaging system from Bio-Rad (Hercules, CA, USA) was used for blots reading. Blots were used to obtain the protein bands, followed by quantification of the bands using image J software (NIH, Bethesda, MD, USA). All of the data were expressed as the ratio of β-actin or GAPDH.

[3] = system: ABCG2 transporter in H460/MX20, S1M180 and HEK293/R2 cells; assay: Western blot, ABCG2 transporter expression; conditions: concentration dependent
Excerpt: FIG. 25: TPH104 reverses multidrug resistance by downregulating the expression of ABCG2 transporter in a concentration dependent fashion in drug resistant small cell lung cancer cells (H460/MX20), colon cancer cells (S1M180) and ABCG2-transfected cells (HEK293/R2). The bar graph represents the quantified values of the ratio of ABCG2/β-actin. The data represent mean±SEM of three independent western blots. *p<0.05, **p<0.01 compared to control.

BT-20 cells = assay: incuCyte live cell imaging of proliferation; conditions: 0.1, 1, 3, and 10 μM
Excerpt: FIG. 4: Representative images of the anti-proliferative effect of TPH104 at different concentrations and different time points in BT-20 cells. The time lapse images were taken using an incuCyte live cell imaging instrument (10×). **p<0.01, ***p<0.001, ****p<0.0001 compared to the control.

Question: Which “percent cell survival, TPH104 + rapamycin vs TPH104 only” value (BT-20 (TNBC cell line); + 100 nM rapamycin) does the source give for `COc1ccc(O)c(/C=N/Nc2ncnc3scc(-c4ccc(C)cc4)c23)c1` [TPH104] here?
Answer: significant increase

Question: And the “percent BT-20 survival, TPH104 + 3-methyladenine” value (BT-20 (TNBC cell line); + 0.5 mM)?
Answer: no significant change

Question: What about the IC50 (BT-20 (TNBC cell line); Homo sapiens, BT-20, MTT, 72 h, TNBC) of the same compound?
Answer: 290 nM

Question: And the IC50 ([1]; 72 h)?
Answer: 8.56 ± 1.95 µM

Question: What about the IC50 ([1]; Homo sapiens, ZR-75-1, 72 h) of the same compound?
Answer: 8.6 µM

Question: What about the death of cells (MDA-MB231 cells; 10 μM, after 12 h of incubation) of the same compound?
Answer: 70%

Question: What about the mobility and migration (MDA-MB231 cells; 0.5, 1, 2, 5, and 10 μM) of the same compound?
Answer: significantly decreased

Question: What about the wound closure (MDA-MB231 cells; 1, 2, 5, and 10 μM) of the same compound?
Answer: significantly reduced

Question: And the TNF-α ([2]; 0.5, 1, 2, and 5 μM)?
Answer: no significant change

Question: What about the “expression of TNFR1, FADD, and Fas” value ([2]; 0.5, 1, 2, and 5 μM) of the same compound?
Answer: significantly inhibited

Question: What about the “TRAIL, its receptor (DRS), RIP3, and TRADD” value ([2]; 0.5, 1, 2, or 5 μM) of the same compound?
Answer: significant increase

Question: And the “expression of ABCG2 transporter” value [3]?
Answer: downregulated

Question: And the BT-20 cell proliferation (BT-20 cells)?
Answer: concentration-dependent and time-dependent decrease

Reference: US12390467B2, “Necroptosis inducers or autophagy inhibitors or a combination thereof” (The University of Toledo, priority 2018, dated 2025)
